Data as given in patent US12558428B2, “Heterobifunctional compounds and their use in treating disease” (Halda Therapeutics OpCo, Inc., priority 2024, dated 2026).

Tests used:
Type in all cases: cell-based
[1] = system: T-Rex 293 cells having increased expression of estrogen receptor alpha protein; assay: Cellular growth inhibition assay, T-Rex 293 cells, (+) doxycycline; details: T-REx-293, 72 h, Table 7-A; T-Rex 293 cells with doxycycline (increased ERα expression); 72 hours; CellTiter-Glo; read-out: (+) Dox GI50
In short: (§1)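 ERα overexpression was switched on by 3 ng/mL doxycycline in a stably transfected T-Rex 293 clone, while uninduced cells served as the comparison line. Proliferation over 72 h of compound treatment was assessed by ATP luminescence, and GI50 values came from four-parameter curves.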

[2] = system: T-Rex 293 cells lacking increased expression of estrogen receptor alpha protein; assay: Cellular growth inhibition assay, T-Rex 293 cells, (−) doxycycline; details: T-REx-293, 72 h, Table 7-A; T-Rex 293 cells without doxycycline (lacking increased ERα expression); 72 hours; CellTiter-Glo; read-out: (−) Dox GI50
In short: as §1

[3] = system: MCF7 cells (ATCC #HTB-22); assay: Cellular growth inhibition assay, MCF7 cells purchased from ATCC; details: Homo sapiens, MCF7, 144 h, Table 8-A; MCF7 cells purchased from ATCC; six days; CellTiter-Glo; read-out: GI50
In short: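 MCF7 cells in RPMI 1640 with 10% FBS and 0.2 U/ml insulin, seeded at 1,500 cells/well (ATCC) or 225 cells/well (ECACC). Compounds added 24 h later, then 6 days at 37° C. Viability by CellTiter-Glo 2.0 luminescence. GI50 from four-parameter fit.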

| SMILES | GI50 [1] | GI50 [2] | GI50 [3] |
| --- | --- | --- | --- |
| Cc1sc2c(c1C)C(c1ccc(N3CC(CC4CCN(c5ccc([C@@H]6c7ccc(O)cc7CC[C@@H]6c6ccccc6)cc5)CC4)C3)cc1)=N[C@@H](C)c1nnc(C)n1-2 [III-138] | 500 to 2500 nM | > 2500 nM | 500 to 2500 nM |
| Cc1sc2c(c1C)C(c1ccc(N3CC(C(=O)N4CCC(c5ccc([C@@H]6c7ccc(O)cc7CC[C@@H]6c6ccccc6)cc5)CC4)C3)cc1)=N[C@@H](C)c1nnc(C)n1-2 [III-139] | 500 to 2500 nM | 500 to 2500 nM | 50 to 500 nM |
| Cc1sc2c(c1C)C(c1ccc(N3CCC(O)(CN4CCC(c5ccc([C@@H]6c7ccc(O)cc7CC[C@@H]6c6ccccc6)cc5)CC4)CC3)cc1)=N[C@@H](Cc1ncco1)c1nnc(C)n1-2 [III-140] | 50 to 500 nM | 500 to 2500 nM | < 50 nM |
| Cc1sc2c(c1C)C(c1ccc(C3CN(CC4CCN(c5ccc([C@@H]6c7ccc(O)cc7CC[C@@H]6c6ccccc6)cc5)CC4)C3)cc1)=N[C@@H](C)c1nnc(C)n1-2 [III-141] | 50 to 500 nM | 500 to 2500 nM | 50 to 500 nM |
| Cc1sc2c(c1C)C(c1ccc(C3CN(C(=O)C4CCN(c5ccc([C@@H]6c7ccc(O)cc7CC[C@@H]6c6ccccc6)cc5)CC4)C3)cc1)=N[C@@H](C)c1nnc(C)n1-2 [III-142] | 50 to 500 nM | 50 to 500 nM | 50 to 500 nM |
| Cc1sc2c(c1C)C(c1ccc(N3CCC(O)(CN4CCN(c5ccc([C@@H]6c7ccc(O)cc7CC[C@@H]6c6ccccc6)cc5)CC4)CC3)cc1)=N[C@@H](Cc1ncco1)c1nnc(C)n1-2 [III-143] | > 2500 nM | > 2500 nM | > 2500 nM |
| Cc1sc2c(c1C)C(c1ccc(N3CCC(F)(CN4CCC(c5ccc([C@@H]6c7ccc(O)cc7CC[C@@H]6c6ccccc6)cc5)CC4)CC3)cc1)=N[C@@H](C)c1nnc(C)n1-2 [III-144] | 50 to 500 nM | > 2500 nM | 500 to 2500 nM |
| Cc1sc2c(c1C)C(c1ccc(N3CCC(C)(CN4CCC(c5ccc([C@@H]6c7ccc(O)cc7CC[C@@H]6c6ccccc6)cc5)CC4)CC3)cc1)=N[C@@H](C)c1nnc(C)n1-2 [III-145] | 500 to 2500 nM | 500 to 2500 nM | 50 to 500 nM |
| Cc1sc2c(c1C)C(c1ccc(N3CC(CN4CCN(CC5CN(c6ccc([C@@H]7c8ccc(O)cc8CC[C@@H]7c7ccccc7)cc6)C5)CC4)C3)cc1)=N[C@H](C)c1nnc(C)n1-2 [III-146] | 500 to 2500 nM | 500 to 2500 nM | < 50 nM |
| Cc1sc2c(c1C)C(c1ccc(N3CC(CN4CCN(CC5CN(c6ccc([C@H]7c8ccc(O)cc8CC[C@H]7c7ccccc7)cc6)C5)CC4)C3)cc1)=N[C@@H](C)c1nnc(C)n1-2 [III-147] | 50 to 500 nM | 50 to 500 nM | 50 to 500 nM |
| Cc1sc2c(c1C)C(c1ccc(N3CC(CN4CCC(c5ccc([C@@H]6c7ccc(O)cc7CC[C@@H]6c6ccccc6)cc5)CC4)C3)cc1)=N[C@@H](C)c1nnc(C)n1-2 [III-148] | < 50 nM | 500 to 2500 nM | < 50 nM |
| Cc1sc2c(c1C)C(c1ccc(N3CCC(C(=O)N4CCN(c5ccc([C@@H]6c7ccc(O)cc7CC[C@@H]6c6ccccc6)cc5)CC4)CC3)cc1)=N[C@@H](Cc1ncco1)c1nnc(C)n1-2 [III-149] | < 50 nM | 50 to 500 nM | < 50 nM |
| Cc1sc2c(c1C)C(c1ccc(N3CCC(C#N)(CN4CCN(c5ccc([C@@H]6c7ccc(O)cc7CC[C@@H]6c6ccccc6)cc5)CC4)CC3)cc1)=N[C@@H](C)c1nnc(C)n1-2 [III-150] | < 50 nM | 500 to 2500 nM | 50 to 500 nM |
| Cc1sc2c(c1C)C(c1ccc(N3CC(CC4CCN(CC5(F)CN(c6ccc([C@@H]7c8ccc(O)cc8CC[C@@H]7c7ccccc7)cc6)C5)CC4)C3)cc1)=N[C@@H](C)c1nnc(C)n1-2 [III-151] | < 50 nM | > 2500 nM | < 50 nM |
| Cc1sc2c(c1C)C(c1ccc(N3CCC(O)(CC4CCN(c5ccc([C@@H]6c7ccc(O)cc7CC[C@@H]6c6ccccc6)cc5)CC4)CC3)cc1)=N[C@@H](C)c1nnc(C)n1-2 [III-152] | < 50 nM | 500 to 2500 nM | 50 to 500 nM |
| Cc1sc2c(c1C)C(c1ccc(N3CCC(CC4(O)CCN(c5ccc([C@@H]6c7ccc(O)cc7CC[C@@H]6c6ccccc6)cc5)CC4)CC3)cc1)=N[C@@H](C)c1nnc(C)n1-2 [III-153] | < 50 nM | 500 to 2500 nM | 50 to 500 nM |
| Cc1sc2c(c1C)C(c1ccc(N3CCC(O)(CC4CCN(c5ccc([C@@H]6c7ccc(O)cc7CC[C@@H]6c6ccccc6)cc5)CC4)CC3)cc1)=N[C@H](Cc1ncco1)c1nnc(C)n1-2 [III-154] | > 2500 nM | > 2500 nM | 50 to 500 nM |

| SMILES | GI50 [1] | GI50 [2] | GI50 [3] |
| --- | --- | --- | --- |
| Cc1sc2c(c1C)C(c1ccc(N3CCC(O)(CC4CCN(c5ccc([C@@H]6c7ccc(O)cc7CC[C@@H]6c6ccccc6)cc5)CC4)CC3)cc1)=N[C@@H](Cc1ncco1)c1nnc(C)n1-2 [III-155] | < 50 nM | 50 to 500 nM | < 50 nM |
| Cc1sc2c(c1C)C(c1ccc(C3CN(C(=O)C4CCN(c5ccc([C@@H]6c7ccc(O)cc7CC[C@@H]6c6ccccc6)cc5)CC4)C3)cc1)=N[C@@H](Cc1ncco1)c1nnc(C)n1-2 [III-156] | < 50 nM | < 50 nM | < 50 nM |
| Cc1sc2c(c1C)C(c1ccc(N3CC(F)(CN4CCC(CC5CN(c6ccc([C@@H]7c8ccc(O)cc8CC[C@@H]7c7ccccc7)cc6)C5)CC4)C3)cc1)=N[C@@H](C)c1nnc(C)n1-2 [III-157] | < 50 nM | 500 to 2500 nM | 50 to 500 nM |
| Cc1sc2c(c1C)C(c1ccc(N3CC(CC4(O)CCN(c5ccc([C@@H]6c7ccc(O)cc7CC[C@@H]6c6ccccc6)cc5)CC4)C3)cc1)=N[C@@H](C)c1nnc(C)n1-2 [III-158] | < 50 nM | 50 to 500 nM | < 50 nM |
| Cc1sc2c(c1C)C(c1ccc(N3CC(O)(CC4CCN(c5ccc([C@@H]6c7ccc(O)cc7CC[C@@H]6c6ccccc6)cc5)CC4)C3)cc1)=N[C@@H](C)c1nnc(C)n1-2 [III-159] | < 50 nM | < 50 nM | < 50 nM |
| Cc1sc2c(c1C)C(c1ccc(N3CC(CN4CCN(C(=O)C5CN(c6ccc([C@@H]7c8ccc(O)cc8CC[C@@H]7c7ccccc7)cc6)C5)CC4)C3)cc1)=N[C@@H](C)c1nnc(C)n1-2 [III-160] | < 50 nM | 50 to 500 nM | < 50 nM |
| Cc1sc2c(c1C)C(c1ccc(N3CC4(CCN(CC5CCN(c6ccc([C@@H]7c8ccc(O)cc8CC[C@@H]7c7ccccc7)cc6)CC5)CC4)C3)cc1)=N[C@@H](Cc1ncco1)c1nnc(C)n1-2 [III-161] | < 50 nM | 50 to 500 nM | < 50 nM |
| Cc1sc2c(c1C)C(c1ccc(N3CC(CN4CCN(CC5CN(c6ccc([C@@H]7c8ccc(O)cc8CC[C@@H]7c7ccccc7)cc6)C5)CC4)C3)cc1)=N[C@@H](Cc1ncco1)c1nnc(C)n1-2 [III-162] | < 50 nM | 50 to 500 nM | < 50 nM |
| Cc1sc2c(c1C)C(c1ccc(N3CCC(CC4(O)CCN(c5ccc([C@@H]6c7ccc(O)cc7CC[C@@H]6c6ccccc6)cc5)CC4)CC3)cc1)=N[C@H](Cc1ncco1)c1nnc(C)n1-2 [III-163] | > 2500 nM | > 2500 nM | 50 to 500 nM |
| Cc1sc2c(c1C)C(c1ccc(N3CCC(CC4(O)CCN(c5ccc([C@@H]6c7ccc(O)cc7CC[C@@H]6c6ccccc6)cc5)CC4)CC3)cc1)=N[C@@H](Cc1ncco1)c1nnc(C)n1-2 [III-164] | < 50 nM | 50 to 500 nM | < 50 nM |
| Cc1sc2c(c1C)C(c1ccc(N3CC(C(=O)N4CCN(CC5CN(c6ccc([C@@H]7c8ccc(O)cc8CC[C@@H]7c7ccccc7)cc6)C5)CC4)C3)cc1)=N[C@@H](C)c1nnc(C)n1-2 [III-165] | < 50 nM | 50 to 500 nM | < 50 nM |
| Cc1sc2c(c1C)C(c1ccc(N3CC(CN4CCN(CC5(O)CN(c6ccc([C@@H]7c8ccc(O)cc8CC[C@@H]7c7ccccc7)cc6)C5)CC4)C3)cc1)=N[C@@H](C)c1nnc(C)n1-2 [III-166] | < 50 nM | 50 to 500 nM | 50 to 500 nM |
| CC1=C(C)C2C(c3ccc(N4CC(O)(CC5CCN(c6ccc([C@@H]7c8ccc(O)cc8CC[C@@H]7c7ccccc7)cc6)CC5)C4)cc3)=N[C@@H](Cc3ncco3)c3nnc(C)n3C2S1 (stereo partly drawn) [III-167] | < 50 nM | 50 to 500 nM | < 50 nM |
| Cc1sc2c(c1C)C(c1ccc(N3CC(C(=O)N4CCN(CC5CN(c6ccc([C@@H]7c8ccc(O)cc8CC[C@@H]7c7ccccc7)cc6)C5)CC4)C3)cc1)=N[C@@H](Cc1ncco1)c1nnc(C)n1-2 [III-168] | < 50 nM | 50 to 500 nM | < 50 nM |
| Cc1sc2c(c1C)C(c1ccc(C3CN(CC4(O)CCN(CC5CN(c6ccc([C@@H]7c8ccc(O)cc8CC[C@@H]7c7ccccc7)cc6)C5)CC4)C3)cc1)=N[C@@H](Cc1ncco1)c1nnc(C)n1-2 [III-169] | < 50 nM | 50 to 500 nM | 50 to 500 nM |
| Cc1sc2c(c1C)C(c1ccc(N3CCC(C(=O)N4CC(c5ccc([C@@H]6c7ccc(O)cc7CC[C@@H]6c6ccccc6)cc5)C4)CC3)cc1)=N[C@@H](C)c1nnc(C)n1-2 [III-170] | < 50 nM | 50 to 500 nM | 50 to 500 nM |
| Cc1sc2c(c1C)C(c1ccc(C3CN(CC4(O)CCN(C(=O)C5CN(c6ccc([C@@H]7c8ccc(O)cc8CC[C@@H]7c7ccccc7)cc6)C5)CC4)C3)cc1)=N[C@@H](C)c1nnc(C)n1-2 [III-171] | < 50 nM | 50 to 500 nM | 50 to 500 nM |
